Key:
HER-2 = biological target: T1, HER-2 (Homo sapiens, UniProt P04626); assay: HER-2 Kinase Assay; assay type: biochemical; settings: read-out: HER2 IC50;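 also: HER2 kinase reaction read by scintillation counting, inhibition scaled between maximum and minimum signals set on each plate, IC50 from inhibition against log concentration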
T1 construct: purchased Proqinase (Freiburg, Germany)

EGFR = biological target: T2, EGFR (Homo sapiens, UniProt P00533); assay: EGFR Kinase Assay; assay type: biochemical;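 also: recombinant GST-tagged EGFR expressed in Sf9 cells, phosphorylating biotinylated polyGluTyr with γ-33P ATP on Streptavidin Flashplates, 1 h at 30 °C, scintillation counting, inhibition relative to plate maximum and minimum signals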
T2 construct: The intracellular portion of EGFR started at nucleotide 2189 (corresponding to amino acid 667) and ended at the termination codon; made in house; host or cells: Sf9 insect cells (baculovirus)
T2 sequence (P00533 669-1210 limits assumed): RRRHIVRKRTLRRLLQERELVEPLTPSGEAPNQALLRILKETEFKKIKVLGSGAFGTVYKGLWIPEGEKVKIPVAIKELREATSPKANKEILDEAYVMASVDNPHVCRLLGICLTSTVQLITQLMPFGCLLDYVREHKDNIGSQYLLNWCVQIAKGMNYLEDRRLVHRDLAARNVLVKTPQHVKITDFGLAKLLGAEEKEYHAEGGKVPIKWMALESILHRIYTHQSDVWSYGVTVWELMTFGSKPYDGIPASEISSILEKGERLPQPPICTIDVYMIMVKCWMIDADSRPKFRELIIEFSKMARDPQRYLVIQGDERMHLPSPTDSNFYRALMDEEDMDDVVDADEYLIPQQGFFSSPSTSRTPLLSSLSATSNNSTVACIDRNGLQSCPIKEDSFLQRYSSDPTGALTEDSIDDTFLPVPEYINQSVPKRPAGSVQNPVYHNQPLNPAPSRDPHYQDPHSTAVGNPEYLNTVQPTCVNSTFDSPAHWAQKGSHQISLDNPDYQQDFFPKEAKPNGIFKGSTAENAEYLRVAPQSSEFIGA

T1 sequence (P04626 679-1255): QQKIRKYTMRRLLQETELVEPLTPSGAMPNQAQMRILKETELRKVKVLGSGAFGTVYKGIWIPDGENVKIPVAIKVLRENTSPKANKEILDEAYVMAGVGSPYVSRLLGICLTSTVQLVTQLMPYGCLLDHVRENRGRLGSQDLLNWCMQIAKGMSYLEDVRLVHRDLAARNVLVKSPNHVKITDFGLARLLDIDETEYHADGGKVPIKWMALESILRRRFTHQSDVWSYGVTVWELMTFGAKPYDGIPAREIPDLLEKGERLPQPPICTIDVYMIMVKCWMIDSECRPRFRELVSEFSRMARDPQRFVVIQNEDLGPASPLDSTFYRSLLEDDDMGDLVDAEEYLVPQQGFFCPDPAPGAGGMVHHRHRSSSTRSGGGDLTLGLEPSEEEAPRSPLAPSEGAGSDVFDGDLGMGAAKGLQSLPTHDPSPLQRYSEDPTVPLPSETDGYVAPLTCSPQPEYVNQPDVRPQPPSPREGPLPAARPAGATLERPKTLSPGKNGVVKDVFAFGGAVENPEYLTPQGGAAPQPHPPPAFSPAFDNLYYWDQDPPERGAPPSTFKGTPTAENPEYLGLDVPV

SMILES	IC50 (HER-2) [nM]	IC50 (EGFR) [nM]
CO/N=C/c1c(N)ncnc1Nc1ccc2nn(Cc3cccc(F)c3)cc2c1 [Cpd 5]	3700	500
COc1cc(Nc2ncnc(N)c2/C=N/OCC(=O)N2CCOCC2)ccc1Oc1ccccc1 [Cpd 8, (5E)-4-amino-6-(3-methoxy-4-phenoxy-phenylamino)-pyrimidine-5-carbaldehyde O-(2-morpholin-4-yl-2-oxo-ethyl)-oxime]	700	–
CCO/N=C/c1c(N)ncnc1N[C@H](C)c1ccccc1 [Cpd 14]	3100	100
CCO/N=C/c1c(N)ncnc1Nc1ccc2[nH]ccc2c1 [Cpd 17, (5E)-4-amino-6-(1H-indol-5-ylamino)-pyrimidine-5-carbaldehyde O-ethyl-oxime]	600	20
CO/N=C/c1c(N)ncnc1Nc1ccc2c(c1)CCC2 [Cpd 20]	14100	1200
CO/N=C/c1c(N)ncnc1Nc1ccc(OC(F)F)cc1 [Cpd 21]	5300	1500
CO/N=C/c1c(N)ncnc1Nc1ccc2c(c1)OCO2 [Cpd 23]	28500	1900
CO/N=C/c1c(N)ncnc1Nc1ccc(OCc2ccccc2)cc1 [Cpd 25, (5E)-4-amino-6-(4-benzyloxy-phenylamino)-pyrimidine-5-carbaldehyde O-methyl-oxime]	300	30
CO/N=C/c1c(N)ncnc1Nc1cccc(OCc2ccccc2)c1 [Cpd 28]	5500	900
Nc1ncnc(Nc2ccc3c(cnn3Cc3cccc(F)c3)c2)c1/C=N/OCCOc1ccccc1 [Cpd 31, (5E)-4-amino-6-[1-(3-fluoro-benzyl)-1H-indazol-5-ylamino]-pyrimidine-5-carbaldehyde O-(2-phenoxy-ethyl)-oxime]	300	20
CNc1ncnc(Nc2ccc(OCc3cccc(F)c3)c(Cl)c2)c1C=NOC [Cpd 39, 4-[3-Chloro-4-(3-fluoro-benzyloxy)-phenylamino]-6-methylamino-pyrimidine-5-carbaldehyde O-methyl-oxime]	14800	–
CCNc1ncnc(Nc2ccc3c(cnn3Cc3cccc(F)c3)c2)c1/C=N/OC [Cpd 40, (5E)-4-ethylamino-6-[1-(3-fluoro-benzyl)-1H-indazol-5-ylamino]-pyrimidine-5-carbaldehyde O-methyl-oxime]	10600	–
CCNc1ncnc(Nc2ccc(OCc3cccc(F)c3)c(Cl)c2)c1/C=N/OC [Cpd 42, (5E)-4-[3-chloro-4-(3-fluoro-benzyloxy)-phenylamino]-6-ethylamino-pyrimidine-5-carbaldehyde O-methyl-oxime]	–	7800
CCO/N=C/c1c(N)ncnc1Nc1ccc2nn(Cc3ccccc3)cc2c1 [Cpd 52]	4500	–
CCO/N=C/c1c(N)ncnc1Nc1ccc2c(cnn2Cc2cccc(OC)c2)c1 [Cpd 57]	–	200
CCO/N=C/c1c(N)ncnc1Nc1ccc2[nH]c(Cc3cccc(F)c3)nc2c1 [Cpd 58, (5E)-4-amino-6-[2-(3-fluoro-benzyl)-1H-benzoimidazol-5-ylamino]-pyrimidine-5-carbaldehyde O-ethyl-oxime]	–	30
CO/N=C/c1c(N)ncnc1Nc1cccc(Cl)c1 [Cpd 59, (5E)-4-amino-6-(3-chloro-phenylamino)-pyrimidine-5-carbaldehyde O-methyl-oxime]	–	50
CO/N=C/c1c(N)ncnc1Nc1ccc(OCc2cccc(F)c2)c(OC)c1 [Cpd 61]	–	200
CCO/N=C/c1c(N)ncnc1Nc1ccc(OCc2cccc(F)c2)c(OC)c1 [Cpd 62]	–	200
CO/N=C/c1c(N)ncnc1Nc1ccc2oc(Cc3ccccc3)cc2c1 [Cpd 73]	2900	–
Nc1ncnc(NCc2ccc3c(c2)OCO3)c1C=NCc1ccc2c(c1)OCO2 [Cpd 119, N-benzo[1,3]dioxol-5-ylmethyl-5-[(benzo[1,3]dioxol-5-ylmethylimino)-methyl]-pyrimidine-4,6-diamine]	> 10000	–
CON=Cc1c(N)ncnc1NCc1ccc2c(c1)OCO2 [Cpd 121, 4-amino-6-[(benzo[1,3]dioxol-5-ylmethyl)-amino]-pyrimidine-5-carbaldehyde O-methyl-oxime]	> 10000	–

The next lines start with the values.

IC50 (HER-2) [nM]	IC50 (EGFR) [nM]	SMILES
100	–	Nc1ncnc(Nc2ccc3c(cnn3Cc3cccc(F)c3)c2)c1/C=N/OCC(=O)N1CCOCC1 [Cpd 6, (5E)-4-amino-6-[1-(3-fluoro-benzyl)-1H-indazol-5-ylamino]-pyrimidine-5-carbaldehyde O-(2-morpholin-4-yl-2-oxo-ethyl)-oxime]
100	50	CO/N=C/c1c(N)ncnc1Nc1ccc(Oc2ccccc2)c(OC)c1 [Cpd 7, (5E)-4-amino-6-(3-methoxy-4-phenoxy-phenylamino)-pyrimidine-5-carbaldehyde O-methyl-oxime]
10	8	C=CCO/N=C/c1c(N)ncnc1Nc1ccc2c(cnn2Cc2cccc(F)c2)c1 [Cpd 11, (5E)-4-amino-6-[1-(3-fluoro-benzyl)-1H-indazol-5-ylamino]-pyrimidine-5-carbaldehyde O-allyl-oxime]
50	40	CC(C)(C)O/N=C/c1c(N)ncnc1Nc1ccc2c(cnn2Cc2cccc(F)c2)c1 [Cpd 12, (5E)-4-amino-6-[1-(3-fluoro-benzyl)-1H-indazol-5-ylamino]-pyrimidine-5-carbaldehyde O-tert-butyl-oxime]
100	200	CO/N=C/c1c(N)ncnc1Nc1ccc(Oc2cccnc2)c(C)c1 [Cpd 13, (5E)-4-amino-6-[3-methyl-4-(pyridin-3-yloxy)-phenylamino]-pyrimidine-5-carbaldehyde O-methyl-oxime]
10	10	CCO/N=C/c1c(N)ncnc1N[C@@H](C)c1ccccc1 [Cpd 16, (5E)-4-amino-6-[(1S)-1-phenyl-ethylamino]-pyrimidine-5-carbaldehyde O-ethyl-oxime]
40	30	CCO/N=C/c1c(N)ncnc1Nc1ccc(OCc2cccc(F)c2)c(Cl)c1 [Cpd 18, (5E)-4-amino-6-[3-chloro-4-(3-fluoro-benzyloxy)-phenylamino)-pyrimidine-5-carbaldehyde O-ethyl-oxime]
200	90	CO/N=C/c1c(N)ncnc1Nc1ccc(Oc2ccccc2)cc1 [Cpd 24, (5E)-4-amino-6-(4-phenoxy-phenylamino)-pyrimidine-5-carbaldehyde O-methyl-oxime]
200	200	CO/N=C/c1c(N)ncnc1Nc1ccc(Oc2ccc(C)nc2)c(C)c1 [Cpd 29, (5E)-4-amino-6-[3-methyl-4-(6-methyl-pyridin-3-yloxy)-phenylamino]-pyrimidine-5-carbaldehyde O-methyl-oxime]
90	10	CO/N=C/c1c(N)ncnc1Nc1ccc(OCc2ccccn2)c(Cl)c1 [Cpd 32, (5E)-4-amino-6-[3-chloro-4-(pyridin-2-ylmethoxy)-phenylamino]-pyrimidine-5-carbaldehyde O-methyl-oxime]
100	20	CCO/N=C/c1c(N)ncnc1Nc1ccc2c(ccn2Cc2cccc(F)c2)c1 [Cpd 33, (5E)-4-amino-6-[1-(3-fluoro-benzyl)-1H-indol-5-ylamino]-pyrimidine-5-carbaldehyde O-ethyl-oxime]
90	20	CCO/N=C/c1c(N)ncnc1Nc1ccc(OCc2ccccc2)c(Cl)c1 [Cpd 37, (5E)-4-amino-6-(4-benzyloxy-3-chloro-phenylamino)-pyrimidine-5-carbaldehyde O-ethyl-oxime]

— patent US8153791B2, “Substituted pyrimidinyl oxime kinase inhibitors” (Janssen Pharmaceutica N.V., priority 2005, dated 2012)
